Source: PMC7091493 (Journal of medicinal chemistry, 2019)

Molecular target: Mtb20S (Mycobacterium tuberculosis, UniProt P9WHT9)
Format: biochemical

Chain of Mtb20S (P9WHT9 58-291): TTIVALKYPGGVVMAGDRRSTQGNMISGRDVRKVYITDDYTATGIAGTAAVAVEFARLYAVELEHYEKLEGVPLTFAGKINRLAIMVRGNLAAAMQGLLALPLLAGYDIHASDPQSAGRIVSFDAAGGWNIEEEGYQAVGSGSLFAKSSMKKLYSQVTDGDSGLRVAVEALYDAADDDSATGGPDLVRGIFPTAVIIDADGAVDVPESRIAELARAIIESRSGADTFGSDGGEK

Cc1cc(C(=O)N[C@@H](CC(=O)N2CCC[C@@H]2c2ccccc2)C(=O)N[C@@H](C)c2ncc(-c3ccccc3F)[nH]2)no1 [B6]
improved potency against Mtb20S: 10 fold
